In patent US7572828B2, “Identification of anti-HIV compounds inhibiting virus assembly and binding of nucleocapsid protein to nucleic acid” (The United States of America as represented by the …, priority 2002, dated 2009):

Legend:
Gag precursor protein = target: T1, Gag precursor protein (Human immunodeficiency virus type 1 group M subtype B, UniProt P04591); experiment: Secondary screen: disruption of in vitro assembly of Gag precursor protein into virus-like particles; type: biochemical; conditions: for disrupted viral assembly: artificial viral particles from recombinant Gag protein and tRNA; for EC50: in vitro, assay not given
T1 construct: human immunodeficiency virus type 1 Gag protein lacking the p6 domain; made in house
From the text: A secondary screen was used to identify small molecules that disrupt in vitro assembly of Gag precursor protein into virus-like particles. Artificial viral particles were assembled from recombinant Gag protein and tRNA as previously described (see, e.g., Campbell & Rein, “In vitro assembly properties of human immunodeficiency virus type 1 Gag protein lacking the p6 domain” J. Virol. 73: 2270-2279, 1999). […]

HIV = experiment: XTT-cytoprotection assay, cell based anti-HIV screening in CEM-SS cells; conditions: for XTT: protection from HIV infection
From the text: One exemplary means to determine antiviral activity is with CEM-SS cells and virus (e.g., HIV-1RF) (MOI=0.01) using the XTT (2,3-bis[2-methoxy- 4-nitro-5-sulfophenyl]-5- [(phenylamino)carbonyl]-2H-tetrazolium hydroxide) cytoprotection assay (see, e.g., Weislow, et al, J. Natl. Canc. Inst. 81: 577-586, 1989; Rice PNAS 90:9721-9724, 1993; and Rice Antimicrob. Agents Chemother. 41:419-426, 1997). Briefly, cells are infected with HIV-1RF (or other virus to be tested) in the presence of various dilutions of test compounds (antimony or diphenyl compounds and controls). The cultures are incubated for seven days. […] The cell death is measured by XTT dye reduction. XTT is a soluble tetrazolium dye that measures mitochondrial energy output, similar to MTT. Positive controls using dextran sulfate (an attachment inhibitor) or 3′-Azido -2′-3′-dideoxythymidine, AZT (a reverse transcriptase inhibitor) are added to each assay. Individual assays are done in duplicate using a sister plate method.
Effective antiviral concentrations providing 50% cytoprotection (EC50), and cellular growth inhibitory concentrations causing 50% cytotoxicity (IC50) are calculated.
Cell based anti-HIV screening was performed in CEM-SS cells, using an XTT-cytoprotection assay (see, e.g., Weislow, et al, J. Natl. Canc. Inst. 81: 577-586, 1989; Rice PNAS 90:9721-9724, 1993; and Rice Antimicrob. Agents Chemother. 41:419-426, 1997)).

NC-p7 protein = target: T2, NC-p7 protein (Human immunodeficiency virus type 1 group M subtype B, UniProt P04591); experiment: High throughput screen: disruption of association of viral NC-p7 protein with a biotinylated 28 base oligonucleotide; type: binding, HIV-1; conditions: 10 μM of test compound; hit threshold 100% inhibition
T2 construct: nucleocapsid p7 (NCp7) protein portion of the polyprotein
Description: A high throughput screen was used to detect small molecules that disrupted the association of viral NC-p7 protein with an oligonucleotide. The assay was performed using a Tomtec Quadra robotic system. NC protein was immobilized on Costar (Corning, N.Y.) high-bind polystyrene 96 well plates by incubating 100 μl 250 nM NC-p7 in phosphate buffered saline (PBS)/10 μM zinc chloride/10 mM β-mercaptoethanol/0.05% Tween overnight at 4° C. 200 μl of 2% BSA in PBS/10 μM zinc chloride/10 mM β-mercaptoethanol/0.05% Tween was added and incubated at room temperature for 1-2 hours in order to block the plates. The plates were then washed 2 times with 200 μl PBS/10 μM zinc chloride/10 mM β-mercaptoethanol/0.05% Tween using a Titertek M96V plate washer and stored overnight at 4° C. 5 nM biotinylated 28 base oligonucleotide (5′ […] 3′) in PBS/10 μM zinc chloride/10 mM β-mercaptoethanot/0.05% Tween was added to each well followed by 10 μM of test compound (in 20% dimethyl sulphoxide) from the Diversity Set and allowed to incubate at room temperature for 1 hour. Plates were then washed 3 times with 200 μl PBS/0.05% Tween. Binding of the biotinylated 28 mer was measured by adding 100 μl 1:20000 dilution of nutravidin-horse radish peroxidase (stock 0.8 mg/ml, from Pierce Chemical Co. Rockford, Ill.) and incubating at room temperature for 1 hour. The plates were washed 3 times with 200 μl PBS/0.05% Tween. Plates were developed by adding 100 μl of Supersignal (Pierce Chemical Co. Rockford, Ill.) and bioluminescence was measured in a Wallac Victor plate reader. […] The hit threshold was set at 100% inhibition.

p24 = conditions: unit not given
Tolerability in mice = type: in vivo
CEM-SS Leukemia cells = experiment: Uptake of radio-labelled compound in cells; type: in vitro ADME

SMILES	disrupted viral assembly (Gag precursor protein)	EC50 (Gag precursor protein)	activity in the cell based assay (XTT cytoprotection ranking) (HIV)	XTT (HIV)	Active compounds identified in high throughput screen (disruption of NC-p7/oligonucleotide association) (NC-p7 protein)	p24 assay (p24)	tolerability in vivo (Tolerability in mice)	uptake of the compound in cells (CEM-SS Leukemia cells)
O=S(=O)(O)c1cc[c]([Sb](=[O])([OH])[OH])cc1 [NSC 13746]	disrupted viral assembly	10 µM	active	A (active (80-100% protection from HIV infection))	Active			
O=C(O)c1cc[c]([Sb](=[O])([OH])[OH])cc1[N+](=O)[O-] [NSC 13755]	disrupted viral assembly	6.15 µM	active	A (active (80-100% protection from HIV infection))	Active	0.21		
O=C(O)c1ccc[c]([Sb](=[O])([OH])[OH])c1 [NSC 13759]	disrupted viral assembly	1.5 µM	active	A (active (80-100% protection from HIV infection))		0.19		
O=C(O)c1cc[c]([Sb](=[O])([OH])[OH])cc1 [NSC 13760]	disrupted viral assembly	1.15 µM	active	A (active (80-100% protection from HIV infection))		0.29		
NC(=O)c1ccc[c]([Sb](=[O])([OH])[OH])c1 [NSC 13765]	disrupted viral assembly	3.75 µM	active	A (active (80-100% protection from HIV infection))		0.41		
COC(=O)c1ccc[c]([Sb](=[O])([OH])[OH])c1 [NSC 13771]	disrupted viral assembly	5.5 µM		I (inactive (0-49% protection))		0.2		
O=C(O)/C=C/c1ccc[c]([Sb](=[O])([OH])[OH])c1 [NSC 13778]	disrupted viral assembly	3.8 µM	active	A (active (80-100% protection from HIV infection))	Active	0.11	tolerated in vivo	energy-dependent uptake
O=C(NCCO)c1ccc[c]([Sb](=[O])([OH])[OH])c1 [NSC 13782]			exhibited activity					
CCOC(=O)CCCc1cc[c]([Sb](=[O])([OH])[OH])cc1 [NSC 13793]	disrupted viral assembly	3.25 µM		I (inactive (0-49% protection))		0.14		
O=C(O)c1ccc(C(=O)c2ccccc2C(=O)O)cc1C(=O)O [NSC 28620]	disrupted viral assembly		active		Active			
